Data as given in US20240350489A1, “LOU064 FOR TREATING MULTIPLE SCLEROSIS” (NOVARTIS AG, priority 2021, published 2024).
Entries after “also recorded” stand apart in the source; their conditions may differ. Like-named read-outs stand apart in the source and are kept apart here.

Experiments:
HumanMOG-induced EAE = HumanMOG-induced EAE in C57BL/6 mouse, prophylactic b.i.d. dosing; format: in vivo
From the text: There is no known naturally occurring MS-like disease in rodents or non-human primates. Following immunization of susceptible rodent strains with CNS-specific myelin proteins emulsified in complete Freund's adjuvant (CFA) an induced disease model develops. Experimental autoimmune encephalitis (EAE) mimics many of the pathological phenotypes of MS with focal, demyelinating lesions of the CNS white matter. In the C57BL/6 mouse there are two variants of myelin oligodendrocyte glycoprotein (MOG)-induced EAE depending on whether the human (HumanMOG) or rat (RatMOG) recombinant protein sequences are used (Lyons J.A. et al. (1999) European Journal of Immunology 29:3432-3439; Oliver A. R. et al. (2003) J Immunology 171: 462-468). Minor amino acid residue differences result in HumanMOG-induced EAE being exquisitely B-cell dependent as the APC, whilst RatMOG-induced EAE is B-cell independent and requires dendritic cells as the dominant APC population (Lyons et al 1999; Molnarfi N. et al. (2013) Journal of Experimental Medicine 210(13):2921-2937).
In HumanMOG-induced EAE the BTK inhibitor LOU064 was dosed twice daily (b.i.d.) at 3 mg/kg or 30 mg/kg at 12 hr intervals. Prophylactic dosing of LOU064 was initiated 6 hours prior to MOG/CFA immunization and continued until study end.
EAE was assessed using a scoring system, outlined in Table 1. Clinical scores and body weights were assessed daily throughout the experiment.
According to the animal regulations, humane endpoints for EAE mice were score 3 (>7 days), score 3.5 (>3 days), or immediately if score 4 was reached.
Using a short eight-day (pre-disease onset) EAE protocol, the immune priming mechanisms during the HumanMOG model were investigated.

[1] = Levels of LOU064 in mouse tissues (blood, brain, CSF); format: in vivo; details: for concentration at 1 h / concentration at 5 h / concentration at 8 h: C57BL/6, mouse, oral
Method: The compound levels in total brain homogenate are very low and mainly detectable at the early timepoint. Similarly, the levels in cerebrospinal fluid (CSF) are low.
Blood, brain and CSF levels of LOU064 after oral dosing of 3 and 30 mg/kg b.i.d. The LLOQ were 0.2 nM in blood, […] in brain homogenate and 0.5 nM in CSF. Shown are averages ±SD from 4 animals for the 1 h timepoints and from 3 animals for the 5 and 8 h timepoints. Where denoted with ^a, the values were derived from one animal of three that was above the LLOQ.

NF-L = NF-L concentration in serum, RatMOG EAE; format: in vivo, mouse; details: 30 mg/kg b.i.d., vs vehicle
From the text: In immunized mice, vehicle or LOU064-treated, the mean NF-L level was markedly higher as compared to naive mice.

BTK = biological target: T1, BTK (Homo sapiens, UniProt Q06187); assay: BTK occupancy in blood as biomarker for dose selection; format: in vivo; details: low doses
T1 construct: simulate BTK occupancy in human spleen/tissues across a range of doses; from tissue; host or cells: human spleen / peripheral tissues (simulated, not sampled)
T1 sequence (Q06187 whole entry): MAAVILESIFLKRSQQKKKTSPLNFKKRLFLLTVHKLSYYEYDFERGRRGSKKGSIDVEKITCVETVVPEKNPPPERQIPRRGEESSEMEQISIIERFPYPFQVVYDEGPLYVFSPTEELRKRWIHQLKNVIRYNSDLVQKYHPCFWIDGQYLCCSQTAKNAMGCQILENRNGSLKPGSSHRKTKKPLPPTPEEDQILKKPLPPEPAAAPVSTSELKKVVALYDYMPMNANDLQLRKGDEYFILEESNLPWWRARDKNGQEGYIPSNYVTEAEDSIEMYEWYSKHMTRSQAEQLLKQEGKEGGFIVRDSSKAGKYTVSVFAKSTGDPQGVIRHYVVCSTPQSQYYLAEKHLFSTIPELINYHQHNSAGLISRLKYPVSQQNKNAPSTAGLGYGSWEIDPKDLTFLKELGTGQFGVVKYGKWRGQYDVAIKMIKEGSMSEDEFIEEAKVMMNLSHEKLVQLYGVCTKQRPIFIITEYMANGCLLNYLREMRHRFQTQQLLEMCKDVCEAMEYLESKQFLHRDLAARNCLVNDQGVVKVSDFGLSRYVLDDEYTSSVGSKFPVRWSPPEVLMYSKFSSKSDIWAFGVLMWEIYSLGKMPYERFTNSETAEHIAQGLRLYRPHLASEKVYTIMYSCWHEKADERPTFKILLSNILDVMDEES
From the text: BTK occupancy in blood is not an informative biomarker for the purpose of dose selection due to LOU064 pharmacological properties (irreversible binding). […] Occupancy in tissue may be more representative of the efficacy of LOU064.

C=CC(=O)N(C)CCOc1c(N)ncnc1-c1cc(F)cc(NC(=O)c2ccc(C3CC3)cc2F)c1C [LOU064, N-(3-(6-amino-5-(2-(N-methylacrylamido)ethoxy)pyrimidin-4-yl)-5-fluoro-2-methylphenyl)-4-cyclopropyl-2-fluorobenzamide]
neurologic symptoms and EAE-induced weight loss (HumanMOG-induced EAE; 3 mg/kg b.i.d.): only a fairly weak reduction | cumulative disease burden (HumanMOG-induced EAE; 30 mg/kg b.i.d.): significantly reduced | disease incidence / frequency of EAE onset (HumanMOG-induced EAE; 30 mg/kg b.i.d.): reduction in the frequency of EAE onset; also recorded: significantly reduced disease incidence | peak EAE score (HumanMOG-induced EAE; 30 mg/kg b.i.d.): significantly reduced | EAE clinical symptoms / EAE scores (HumanMOG-induced EAE; 30 mg/kg p.o. b.i.d.): improvement in EAE scores; also recorded: significantly reduced clinical symptoms of EAE; also recorded: highly effective at inhibiting HumanMOG-induced EAE induction; also recorded: strongly reduced neurologic symptoms | inflammation-induced cachexia / daily body weight change (HumanMOG-induced EAE; 30 mg/kg p.o. b.i.d.): significantly improved; also recorded: inhibited inflammation-induced cachexia; also recorded: strongly reduced | tolerability (HumanMOG-induced EAE; 3 and 30 mg/kg p.o. b.i.d.): well tolerated in all animals | adverse events (HumanMOG-induced EAE; mouse, in vivo): no adverse events were observed with either dose group | weight gain in immunized mice (inflammation-induced cachexia) (HumanMOG-induced EAE; short eight-day pre-EAE protocol, 30 mg/kg twice daily): improved weight gain | Levels of LOU064, Brain ([1]; 3 mg/kg p.o. b.i.d., 1 h): 2.3 ± 2.2 pmol/g | Levels of LOU064, Brain ([1]; 3 mg/kg p.o. b.i.d., 5 h): <0.5 pmol/g | Levels of LOU064, Brain ([1]; 3 mg/kg p.o. b.i.d., 8 h): <0.5 pmol/g | Levels of LOU064, Brain ([1]; 30 mg/kg p.o. b.i.d., 1 h): 13.5 ± 6.0 pmol/g | Levels of LOU064, CSF ([1]; 30 mg/kg p.o. b.i.d., 1 h): 8.4 ± 3.1 nM | Levels of LOU064, Brain ([1]; 30 mg/kg p.o. b.i.d., 5 h): 0.7 ± 0.02 pmol/g | Levels of LOU064, Brain ([1]; 30 mg/kg p.o. b.i.d., 8 h): <0.5 pmol/g | concentration at 1 h ([1]; CSF, 3 mg/kg p.o. b.i.d., 1 h, read-out: Levels of LOU064, CSF): 3 ± 3.3 nM | concentration at 5 h ([1]; CSF, 3 mg/kg p.o. b.i.d., 5 h, one animal of three above LLOQ, read-out: Levels of LOU064, CSF): 0.5 nM | concentration at 8 h ([1]; CSF, 3 mg/kg p.o. b.i.d., 8 h, read-out: Levels of LOU064, CSF): < 0.5 nM | concentration at 5 h ([1]; CSF, 30 mg/kg p.o. b.i.d., 5 h, one animal of three above LLOQ, read-out: Levels of LOU064, CSF): 0.5 nM | concentration at 8 h ([1]; CSF, 30 mg/kg p.o. b.i.d., 8 h, read-out: Levels of LOU064, CSF): < 0.5 nM | concentration at 1 h ([1]; whole blood, 3 mg/kg p.o. b.i.d., 1 h, read-out: Levels of LOU064, Blood): 28.2 ± 11.7 nM | concentration at 5 h ([1]; whole blood, 3 mg/kg p.o. b.i.d., 5 h, read-out: Levels of LOU064, Blood): 0.4 ± 0.04 nM | concentration at 8 h ([1]; whole blood, 3 mg/kg p.o. b.i.d., 8 h, read-out: Levels of LOU064, Blood): 0.2 ± 0.07 nM | concentration at 1 h ([1]; whole blood, 30 mg/kg p.o. b.i.d., 1 h, read-out: Levels of LOU064, Blood): 371 ± 149 nM | concentration at 5 h ([1]; whole blood, 30 mg/kg p.o. b.i.d., 5 h, read-out: Levels of LOU064, Blood): 19.4 ± 9.9 nM | concentration at 8 h ([1]; whole blood, 30 mg/kg p.o. b.i.d., 8 h, read-out: Levels of LOU064, Blood): 3.4 ± 2.3 nM | mean serum NF-L level (NF-L): non-significant trend towards a lower mean NF-L level; also recorded: slightly reduced | BTK occupancy in blood (BTK): reaches full occupancy even at low doses
